Patent US7351728B2, “Oxazolyl-aryloxyacetic acid derivatives and their use as PPAR agonists” (Eli Lilly and Company, priority 2003, dated 2008)

What was measured:
[1] = molecular target: T1, huPPARγ (Homo sapiens, UniProt P37231); assay: Cotransfection assay in CV-1 cells, AOX PPRE luciferase reporter; format: cell-based; set-up: expressed in transfected cells; host or cells: CV-1 cells; details: cotransfection efficacy relative to PPARγ agonist reference molecule
T1 sequence (P37231 1-505): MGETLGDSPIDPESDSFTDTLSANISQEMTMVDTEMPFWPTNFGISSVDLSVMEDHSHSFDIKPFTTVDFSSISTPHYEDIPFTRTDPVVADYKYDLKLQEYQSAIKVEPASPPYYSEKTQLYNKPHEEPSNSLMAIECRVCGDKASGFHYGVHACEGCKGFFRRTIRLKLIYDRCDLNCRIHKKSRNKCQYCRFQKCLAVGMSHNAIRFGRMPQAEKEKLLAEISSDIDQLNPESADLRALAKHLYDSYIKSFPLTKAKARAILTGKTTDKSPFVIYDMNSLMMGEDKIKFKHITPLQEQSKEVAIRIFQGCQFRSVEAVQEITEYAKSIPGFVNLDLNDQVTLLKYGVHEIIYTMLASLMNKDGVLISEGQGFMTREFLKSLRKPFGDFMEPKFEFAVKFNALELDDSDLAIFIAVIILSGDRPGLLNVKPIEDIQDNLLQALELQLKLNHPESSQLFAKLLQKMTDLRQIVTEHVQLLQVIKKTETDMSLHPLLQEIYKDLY
T1 sequence (P19793 1-462 partner): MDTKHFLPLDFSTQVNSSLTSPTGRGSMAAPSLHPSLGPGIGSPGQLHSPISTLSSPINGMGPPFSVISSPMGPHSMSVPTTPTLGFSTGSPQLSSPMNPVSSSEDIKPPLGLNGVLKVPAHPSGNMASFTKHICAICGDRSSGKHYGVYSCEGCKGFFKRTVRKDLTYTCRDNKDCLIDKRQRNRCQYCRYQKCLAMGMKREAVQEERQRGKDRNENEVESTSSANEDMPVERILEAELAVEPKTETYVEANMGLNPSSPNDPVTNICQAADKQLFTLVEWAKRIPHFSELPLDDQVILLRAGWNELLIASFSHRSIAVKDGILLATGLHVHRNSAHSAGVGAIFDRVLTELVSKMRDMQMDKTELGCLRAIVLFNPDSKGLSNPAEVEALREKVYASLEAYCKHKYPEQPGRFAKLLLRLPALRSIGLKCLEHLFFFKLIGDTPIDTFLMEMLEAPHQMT
Procedure: (§1) DNA-dependent binding (ABCD binding) was carried out using SPA technology with PPAR receptors. Tritium-labeled PPARα and PPARγ agonists were used as radioligands for generating displacement curves and IC50 values with compounds of the invention. Cotransfection assays were carried out in CV-1 cells. The reporter plasmid contained an acylCoA oxidase (AOX) PPRE and TK promoter upstream of the luciferase reporter cDNA. Appropriate PPARs and RXRα were constitutively expressed using plasmids containing the CMV promoter. […] In order to eliminate such interference, a GAL4 chimeric system was used in which the DNA binding domain of the transfected PPAR was replaced by that of GAL4, and the GAL4 response element was utilized in place of the AOX PPRE. Cotransfection efficacy was determined relative to PPARα agonist and PPARγ agonist reference molecules. Efficacies were determined by computer fit to a concentration-response curve, or in some cases at a single high concentration of agonist (10 μM). For binding or cotransfection studies with receptors other than PPARs, similar assays were carried out using appropriate ligands, receptors, reporter constructs, etc., for that particular receptor.
(§2) These studies were carried out to evaluate the ability of compounds of the invention to bind to and/or activate various nuclear transcription factors, particularly huPPARα (“hu” indicates “human”) and huPPARγ. These studies provide in vitro data concerning efficacy and selectivity of compounds of the invention. Furthermore, binding and cotransfection data for compounds of the invention were compared with corresponding data for marketed compounds that act on either huPPARα or huPPARγ.
(§3) Binding and cotransfection data for representative compounds of the invention are compared with corresponding data for reference compounds in Table II.

[2] = tested on: huPPARα; assay: Cotransfection assay in CV-1 cells, luciferase reporter (GAL4 chimeric system); format: cell-based, human; details: cotransfection efficacy relative to PPARα agonist reference molecule
Procedure: as §1, §2, §3

[3] = tested on: db/db mice; assay: Evaluation of glucose levels in db/db mice; format: in vivo; details: Mus musculus, 168 h; 30 mg/kg daily oral gavage 7 days, male db/db mice; 100% = lean values; read-out: Glucose Normalization %
Procedure: Five week old male diabetic (db/db) mice [C57BlKs/j-m +/+ Lepr(db), Jackson Laboratory, Bar Harbor, Me.] or lean littermates (db+) were housed 6 per cage (10″×20″×8″ with aspen chip bedding) with food (Purina 5015) and water available at all times. After an acclimation period of 2 weeks, animals were individually identified by ear notches, weighed, and bled via the tail vein for determination of initial glucose levels. Blood was collected (100 μl) from unfasted animals by wrapping each mouse in a towel, cutting the tip of the tail with a scalpel, and milking blood from the tail into a heparinized capillary tube (Fisher) balanced on the edge of the bench. Sample was discharged into a heparinized microtainer with gel separator (VWR) and retained on ice. Plasma was obtained after centrifugation at 4° C. and glucose measured immediately. Remaining plasma was frozen until the completion of the experiment, when glucose and triglycerides were assayed in all samples. Animals were grouped based on initial glucose levels and body weights. Beginning the following morning, mice were dosed daily by oral gavage for 7 days using a 20 gauge, 1½″ curved disposable feeding needle. Treatments were test compounds (30 mg/kg), a positive control agent (30 mg/kg) or vehicle [1% carboxymethylcellulose (w/v)/0.25% Tween80 (w/v); 0.3 ml/mouse]. On day 7, mice were weighed and bled (tail vein) 3 hours after dosing. Twenty-four hours after the 7th dose (i.e., day 8), animals were bled again (tail vein). Samples obtained from conscious animals on days 0, 7 and 8 were assayed for glucose. After the 24 hour bleed, animals were weighed and dosed for the final time. Three hours after dosing on day 8, animals were anesthetized by inhalation of isoflurane and blood obtained via cardiac puncture (0.5-0.7 ml). Whole blood was transferred to serum separator tubes, chilled on ice and permitted to clot. Serum was obtained after centrifugation at 4° C. and frozen until analysis for compound levels. After sacrifice by cervical dislocation, the liver, heart and epididymal fat pads were excised and weighed.
The animals dosed with vehicle had average triglycerides values of 170-230 mg/dl, which were reduced by the positive PPARγ control (70-120 mg/dl with a mean reduction of 50%). Male db/db mice were hyperglycemic (average glucose of 680-730 mg/dl on the 7th day of treatment), while lean animals had average glucose levels between 190-230 mg/dl.
Glucose was measured colorimetrically using commercially purchased reagents (Sigma #315-500). According to the manufacturers, the procedures were modified from published work (McGowan, M. W., Artiss, J. D., Strandbergh, D. R. & Zak, B. Clin Chem, 20:470-5 (1974) and Keston, A. Specific colorimetric enzymatic analytical reagents for glucose. Abstract of papers 129th Meeting ACS, 31C (1956).); and depend on the release of a mole of hydrogen peroxide for each mole of analyte, coupled with a color reaction first described by Trinder (Trinder, P. Determination of glucose in blood using glucose oxidase with an alternative oxygen acceptor. Ann Clin Biochem, 6:24 (1969)). The absorbance of the dye produced is linearly related to the analyte in the sample. The assays were further modified in our laboratory for use in a 96 well format. Standards (Sigma #339-11, Sigma #16-11, and Sigma #CC0534 for glucose triglycerides and total cholesterol, respectively), quality control plasma (Sigma # A2034), and samples (2 or 5 μl/well) were measured in duplicate using 200 μl of reagent. An additional aliquot of sample, pipetted to a third well and diluted in 200 μl water, provided a blank for each specimen. Plates were incubated at room temperature (18, 15, and 10 minutes for glucose, triglycerides and total cholesterol, respectively) on a plate shaker (DPC Micormix 5) and absorbance read at 500 nm (glucose and total cholesterol) or 540 nm (triglycerides) on a plate reader (Wallac Victor 1420). […]

[4] = tested on: HuapoAI transgenic mice; assay: Evaluation of triglyceride and cholesterol level in HuapoAI transgenic mice; format: in vivo; details: for change in vivo at 30 mg/kg / inhibition in vivo at 30 mg/kg: Mus musculus, 168 h, 30 mg/kg daily oral gavage 7 days; for change in vivo at 30 mg/kg: percent increase in FPLC HDLc area under the curve; for inhibition in vivo at 30 mg/kg: serum, male human apoAI transgenic mice, read-out: % Triglyceride Reduction
Procedure: Five to six week old male mice, transgenic for human apoAI [C57Bl/6-tgn(apoa1)lrub, Jackson Laboratory, Bar Harbor, Me.] were housed five per cage (10″×20″×8″ with aspen chip bedding) with food (Purina 5001) and water available at all times. After an acclimation period of 2 weeks, animals were individually identified by ear notches, weighed, and assigned to groups based on body weight. Beginning the following morning, mice were dosed daily by oral gavage for 7 days using a 20 gauge, 1½″ curved disposable feeding needle (Popper & Sons). Treatments were test compounds (30 mg/kg), a positive control (fenofibrate, 100 mg/kg) or vehicle [1% carboxymethylcellulose (w/v)/0.25% Tween80 (w/v); 0.2 ml/mouse]. Prior to termination on day 7, mice were weighed and dosed. Three hours after dosing, animals were anesthetized by inhalation of isoflurane (2-4%; Abbott Laboratories, Chicago, Ill.) and blood obtained via cardiac puncture (0.7-1.0 ml). Whole blood was transferred to serum separator tubes (Vacutainer SST), chilled on ice, and permitted to clot. Serum was obtained after centrifugation at 4° C. and frozen until analysis for triglycerides, total cholesterol, compound levels, and serum lipoprotein profile by fast protein liquid chromatography (FPLC) coupled to an inline detection system. After sacrifice by cervical dislocation, the liver, heart and epididymal fat pads were excised and weighed.
The animals dosed with vehicle had average triglycerides values of 60-80 mg/dl, which were reduced by the positive control fenofibrate (33-58 mg/dl with a mean reduction of 37%). The animals dosed with vehicle had average total serum cholesterol values of 140-180 mg/dl, which were increased by fenofibrate (190-280 mg/dl, with a mean elevation of 41%). […] Fenofibrate increased the amount of HDLc (68-96 v-sec with a mean percent increase of 48%).
Glucose was measured colorimetrically using commercially purchased reagents (Sigma #315-500). According to the manufacturers, the procedures were modified from published work (McGowan, M. W., Artiss, J. D., Strandbergh, D. R. & Zak, B. Clin Chem, 20:470-5 (1974) and Keston, A. Specific colorimetric enzymatic analytical reagents for glucose. Abstract of papers 129th Meeting ACS, 31C (1956).); and depend on the release of a mole of hydrogen peroxide for each mole of analyte, coupled with a color reaction first described by Trinder (Trinder, P. Determination of glucose in blood using glucose oxidase with an alternative oxygen acceptor. Ann Clin Biochem, 6:24 (1969)). The absorbance of the dye produced is linearly related to the analyte in the sample. The assays were further modified in our laboratory for use in a 96 well format. Standards (Sigma #339-11, Sigma #16-11, and Sigma #CC0534 for glucose triglycerides and total cholesterol, respectively), quality control plasma (Sigma # A2034), and samples (2 or 5 μl/well) were measured in duplicate using 200 μl of reagent. An additional aliquot of sample, pipetted to a third well and diluted in 200 μl water, provided a blank for each specimen. Plates were incubated at room temperature (18, 15, and 10 minutes for glucose, triglycerides and total cholesterol, respectively) on a plate shaker (DPC Micormix 5) and absorbance read at 500 nm (glucose and total cholesterol) or 540 nm (triglycerides) on a plate reader (Wallac Victor 1420). Sample absorbances were compared to a standard curve (100-800, 10-500, and 100-400 mg/dl for glucose, triglycerides and total cholesterol, respectively). Values for the quality control sample were always within the expected range and the coefficient of variation for samples was below 10%. All samples from an experiment were assayed at the same time to minimize inter-assay variability.
Serum lipoproteins were separated and cholesterol quantitated with an in-line detection system. Sample was applied to a Superose® 6 HR 10/30 size exclusion column (Amersham Pharmacia Biotech) and eluted with phosphate buffered saline-EDTA at 0.5 ml/min. […]

[5] = 100 mg/kg daily oral gavage 7 days, versus vehicle

## C#Cc1cccc(-c2nc(CCOc3ccc(OC(C)(C)C(=O)O)cc3)c(C)o2)c1 [Example 10, 2-(4-{2-[2-(3-Ethynylphenyl)-5-methyloxazol-4-yl]ethoxy}phenoxy)-2-methylpropionic acid]
other
  melting point: 131 to 134 °C

## CC(C)(Oc1ccc(C(=O)c2ccc(Cl)cc2)cc1)C(=O)O [Fenofibric acid, reference compound]
[1]
  huPPARγ CTF Eff. (%): 0%
[2]
  huPPARα CTF Eff. (%): 16%

## Cc1oc(-c2ccccc2)nc1COc1ccc(OC(C)(C)C(=O)O)cc1 [Example 4, 2-Methyl-2-[4-(5-methyl-2-phenyloxazol-4-ylmethoxy)phenoxy]propionic acid]
other
  melting point: 136 to 138 °C

## Cc1oc(-c2ccccc2)nc1CCOc1ccc(OC(C)(Cc2ccccc2)C(=O)O)cc1 (centres unmarked) [Example 6, 2-Methyl-2-{4-[2-(5-methyl-2-phenyloxazol-4-yl)ethoxy]phenoxy}-3-phenylpropionic acid]
[3]
  inhibition in vivo at 30 mg/kg: 65%
[4]
  change in vivo at 30 mg/kg: 20%
  inhibition in vivo at 30 mg/kg: 35.4%

## CC(C)OC(=O)C(C)(C)Oc1ccc(C(=O)c2ccc(Cl)cc2)cc1 [fenofibrate, reference compound]
[4]; 100 mg/kg daily oral gavage 7 days, FPLC of pooled sera, vehicle 47-62 v-sec
  HDLc peak area: 68-96 v-sec
[4]; [5]
  mean elevation of total serum cholesterol: 41%
  mean percent increase of HDLc: 48%
  mean reduction of triglycerides: 37%
[4]; 100 mg/kg daily oral gavage 7 days, vehicle 60-80 mg/dl
  average triglycerides values: 33 to 58 mg/dL
[4]; 100 mg/kg daily oral gavage 7 days, vehicle 140-180 mg/dl
  average total serum cholesterol values: 190 to 280 mg/dL

## Cc1c(C)c2c(c(C)c1O)CCC(C)(COc1ccc(CC3SC(=O)NC3=O)cc1)O2 (centres unmarked) [Troglitazone, reference compound]
[2]
  huPPARα CTF Eff. (%): 0%

## CCc1cc(OC(C)(C)C(=O)O)ccc1OCCc1nc(-c2ccccc2)oc1C [Example 31A, 2-{3-Ethyl-4-[2-(5-methyl-2-phenyloxazol-4-yl)ethoxy]phenoxy}-2-methylpropionic acid]
[3]
  inhibition in vivo at 30 mg/kg: 19%
[4]
  change in vivo at 30 mg/kg: 98%
  inhibition in vivo at 30 mg/kg: -6.4%
